Where two headings read alike, the source gives them in different places.
Experiments:
kynurenine production = details: competes with tryptophan; cited from earlier work
T cells = details: in the presence of IDO-expressing cancer cells and dendritic cells; cited from earlier work
allogeneic pregnant mice = details: cited from earlier work
mouse melanoma cells = details: cited from earlier work
[1] = system: kynurenine production in IFN-γ-treated KATO-III cells; experiment: Inhibitory activity on kynurenine production (Test Example 1); assay type: cell-based; details: Homo sapiens, IFN-γ treatment, culture for 96 hours, read-out: IC50 value, inhibition of kynurenine production
Method in brief: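 KATO-III human gastric cancer cells (2,000/well, RPMI 1640 + 10% FBS) were cultured with compound and IFN-γ (31.25 ng/mL in the cell suspension), DMSO ≤0.1%, for 96 h at 37 °C, 5% CO2. Kynurenine was read at A480 after TCA at 65 °C and p-dimethylaminobenzaldehyde. Inhibition used IFN-γ-treated and untreated DMSO wells as references.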

[2] = system: 4T1 mouse breast cancer cells; experiment: Antitumor effect in mice transplanted with 4T1 cells (Test Example 2); assay type: in vivo, BALB/c mice; details: for T/C: oral, once or twice daily
Description: 5-week-old BALB/c mice (male, supplied from CLEA Japan, Inc.) were purchased. After quarantine and stabilization, mice which favorably gained their weight and had no apparent abnormalities were used in the test. The test started from 6 weeks of age. The mice were housed in groups of 6 mice per plastic cage with free access to commercial solid feed and water in a breeding room in which the room temperature was 19° C. to 25° C., the humidity was 30 to 70% and the light was kept on for 12 hours a day (7:00 a.m. to 7:00 p.m.).
The abdominal hair of the BALB/c mice was shaved on the day before the test. Transplantation was performed by subcutaneous injection of a suspension containing 1×10^6 4T1 mouse breast cancer cells in 100 μL of phosphate buffered saline (PBS) from the shaved region of each mouse.
When the tumor volume reached 30 to 80 mm^3, the mice were divided into groups so that the average tumor volume of each group was equal. The test compound was suspended in 0.5% (w/v) methylcellulose 400 cP (manufactured by Wako Pure Chemical Industries, Ltd.), and the suspension was orally administered to each mouse of the corresponding group once or twice daily. The tumor volume was calculated using the formula (a×b^2)/2 (a: tumor major axis, b: tumor minor axis). The tumor volume (V) was measured twice or three times a week, and the tumor growth rate (V/V0) was calculated by division of the tumor volume (V) by the tumor volume on the day of the first administration (V0). The T/C (treatment group/control group) value was calculated by division of the V/V0 value of the test compound treatment group by the V/V0 value of the control group, based on which the antitumor effect was evaluated.
Statistical analysis was performed on the tumor volumes of the control group and the treatment group, using student's T-test. If the p value was <0.05, we considered the difference significant.

[3] = Day 4 and Day 7 after administration

Cn1cc(C[C@H](N)C(=O)O)c2ccccc21 [Compound 1-MT, 1-methyltryptophan]
effect on kynurenine production (kynurenine production): inhibits kynurenine production | suppression of T cell proliferation (T cells): cancelled | MHC-restricted rejection (allogeneic pregnant mice): induces major histocompatibility complex (MHC)-restricted rejection | antitumor effect (mouse melanoma cells; immunodeficient mice): disappears | antitumor effect (mouse melanoma cells; mice bearing mouse melanoma cells): shows an antitumor effect

CC(Oc1nc2ccccc2nc1NS(=O)(=O)c1cccc(Cl)c1Cl)c1cccnc1 (centres unmarked) [Compound 16, 2,3-dichloro-N-{3-[1-(pyridin-3-yl)ethoxy]quinoxalin-2-yl}-benzenesulfonamide]
IC50 [1]: < 1000 nM | T/C ([2]; Day 3, dose 100 mg/kg): 0.62 | tumor growth inhibition (in words) ([2]; Day 3 and Day 7 after administration): significantly inhibited tumor growth | T/C ([2]; Day 7, dose 100 mg/kg): 0.58

O=S(=O)(Nc1nc2ccccc2nc1OC(c1cccnc1)C(F)(F)F)c1cccc(Cl)c1Cl (centres unmarked) [Compound 20, 2,3-dichloro-N-{3-[2,2,2-trifluoro-1-(pyridin-3-yl)ethoxy]-quinoxalin-2-yl}benzenesulfonamide]
IC50 [1]: < 1000 nM | T/C ([2]; Day 4, dose 10 mg/kg): 0.68 | tumor growth inhibition (in words) [2, 3]: significantly inhibited tumor growth | T/C ([2]; Day 7, dose 10 mg/kg): 0.69

CCCS(=O)(=O)Nc1nc2ccccc2nc1OC(c1cccnc1)C(F)(F)F (centres unmarked) [Compound 179, N-{3-[2,2,2-trifluoro-1-(pyridin-3-yl)ethoxy]quinoxalin-2-yl}propane-1-sulfonamide]
IC50 [1]: < 1000 nM | T/C ([2]; Day 4, dose 0.1 mg/kg): 0.76 | tumor growth inhibition (in words) [2, 3]: significantly inhibited tumor growth | T/C ([2]; Day 7, dose 0.1 mg/kg): 0.50
